One block for each compound: values may come before it.
What was measured:
Type in all cases: physicochemical
[1] = Solid samples held at 93% r.h. (XRPD, TGA); settings: for Solid State (EQ 93% r.h.) Crystallinity by XRPD: either 7 or 10 days
Procedure: An approximate solubility of the below-listed salts was determined in water and at pH 1 by suspending 5-15 mg of the salt in 1 mL of solvent. The samples were allowed to equilibrate at ambient temperature for at least 20 hours. The supernatant was filtered and used for the solubility determination, which was done gravimetrically, for the aqueous solubility, and by UV-VIS spectroscopy for pH 1. The solid residue was analyzed by XRPD. […] They were subsequently analyzed by XRPD and TGA, if the latter deemed necessary. Only irreversible or slowly reversible events can be detected.

[2] = Solubility, 24-hour equilibration at room temperature
Procedure: Aqueous Solubility: A carefully weighted amount (20-50 mg) of sample is dissolved in 1 ml of solvent with 24-hour equilibration at room temperature. The solubility was determined either gravimetrically or by UV-VIS spectrometry. The pH of the clear solution was also measured. However, the difficulty of determining salt solubilities in water should be stressed, since upon dissolution dissociation to the free form is possible, which affects both the solubility and the pH. It's not unlikely that attempts to make solutions of a salt at a concentration well below the reported solubility of the salt to be unsuccessful (for a full discussion see: M. Pudipeddi, A. T. M. Serajuddin, D. J. W. Grant, and P. H. Stahl in “Handbook of Pharmaceutical Salts Properties Selection and Use” page 27 and references therein).

[3] = Stability of mixtures with excipients
Procedure: (§1) All samples were prepared/diluted to a concentration of 0.2 mg/mL in methanol prior to analysis by HPLC. A freshly prepared sample of each salt was used as the reference standard for external standard calibration analysis.

[4] = Solution stability (HPLC)
Procedure: as §1

[5] = Intrinsic dissolution rate, rotation disk method
Procedure: Intrinsic Dissolution: […] […] Pellets of the other salts remained intact for at least several minutes enabling the determination of the intrinsic dissolution rate. Dissolution rate studies were performed using the rotation disk method ([…] Instrument). A single rotation speed of 200 r.p.m. was used to dissolve drug substance into a 500 mL vessel at 37° C. The solution was continuously pumped through a UV cell measurement and returned to the dissolution vessel.

Solid-state stability = settings: for Bulk stability (XRPD): 1 week
Procedure: as §1

[6] = Mixture 1: 50% PVP + 50% Crospovidone, 50° C./75% r.h., 2 weeks
[7] = Mixture 2: 50% Starch 1500 + 5% MCC 102, 50° C./75% r.h., 2 weeks
[8] = Mixture 3: 5% PVP + 5% Crospovidone + 10% Starch 1500 + 80% MCC 102, 50° C./75% r.h., 2 weeks
[9] = Mixture 4: 99% Lactose + 1% BHT/BHA, 50° C./75% r.h., 2 weeks
[10] = Mixture 5: 99% Mannitol + 1% BHT/BHA, 50° C./75% r.h., 2 weeks
[11] = Mixture 6: 50% Mannitol + 47% HPCLH21 + 1% BHT/BHA + 2% Magnesium Stearate, 50° C./75% r.h., 2 weeks
[12] = Mixture 7: 50% Cetyl Alcohol + 49% HPCLH21 + 1% Magnesium Stearate, 50° C./75% r.h., 2 weeks
[13] = Mixture 8: 100% PEG 3350, 50° C./75% r.h., 2 weeks
[14] = 2 mg/mL in methanol, 1 week at 50° C.
[15] = 2 mg/mL in water, 1 week at 50° C.
[16] = 2 mg/mL, 100 mM lactate buffer pH 3.5, 1 week at 50° C.
[17] = 2% in 0.5% HPMC 4000, 1 day at RT
[18] = 2% in 0.5% Klucel HF, 1 day at RT
[19] = 2% in 0.8% Tween 80, 1 day at RT
[20] = 5% solution, 1 day at RT (diluted 1:100 in pH 6.8 buffer)
[21] = Bulk stability, 2 weeks, 50° C.
[22] = Bulk stability, 2 weeks, 50° C./20% water
[23] = Bulk stability, 2 weeks, 50° C./75% r.h.
[24] = Light study, 1200 kLux (300-800 nm)

Compound: CC(=O)O.Cc1[nH]c2ccccc2c1CCNCc1ccc(/C=C/C(=O)NO)cc1 [Acetate, 1:1 acetate salt of N-hydroxy-3-[4-[[[2-(2-methyl-1H-indol-3-yl)ethyl]amino]methyl]phenyl]-2E-2-propenamide]
- Solid State (EQ 93% r.h.) Crystallinity by XRPD [1]: Good
- Solid State (EQ 93% r.h.) Form by XRPD ([1]; either 7 or 10 days (time not given)): converted to a new form
- Solid State (EQ 93% r.h.) LOD by TGA ([1]; after 93% r.h. storage, (105° C.)): LOD = 8.8%

Compound: CC(O)C(=O)O.Cc1[nH]c2ccccc2c1CCNCc1ccc(/C=C/C(=O)NO)cc1 [DL-lactate salt, lactate salt of N-hydroxy-3-[4-[[[2-(2-methyl-1H-indol-3-yl)ethyl]amino]methyl]phenyl]-2E-2-propenamide]
- aqueous solubility, in words [2]: excellent
- stability with all excipient mixtures tested, in words ([3]; after 2 weeks at 50° C./75% r.h.): very good stability
- stability characteristics, in words ([4]; both in solution and in the solid state): very good stability
- intrinsic dissolution (rate), in words [5]: good

Compound: Cc1[nH]c2ccccc2c1CCNCc1ccc(/C=C/C(=O)NO)cc1.Cc1[nH]c2ccccc2c1CCNCc1ccc(/C=C/C(=O)NO)cc1.O=C(O)CCC(=O)O [Succinate, 2:1 succinate (hemi-succinate) salt of N-hydroxy-3-[4-[[[2-(2-methyl-1H-indol-3-yl)ethyl]amino]methyl]phenyl]-2E-2-propenamide]
- Solid State (EQ 93% r.h.) Form by XRPD ([1]; 10 days): No change

Compound: Cc1[nH]c2ccccc2c1CCNCc1ccc(/C=C/C(=O)NO)cc1.O=P(O)(O)O [Phosphate, 1:1 phosphate salt of N-hydroxy-3-[4-[[[2-(2-methyl-1H-indol-3-yl)ethyl]amino]methyl]phenyl]-2E-2-propenamide]
- Solid State (EQ 93% r.h.) Form by XRPD ([1]; 7 days): No change

Compound: CC(O)C(=O)O.Cc1[nH]c2ccccc2c1CCNCc1ccc(/C=C/C(=O)NO)cc1.O (racemic) [Monohydrate DL-lactate salt, 1:1 monohydrate DL-lactate salt of N-hydroxy-3-[4-[[[2-(2-methyl-1H-indol-3-yl)ethyl]amino]methyl]phenyl]-2E-2-propenamide]
- % DP (total degradation products) [3, 6]: 0.6 % area
- % DS (drug substance) [3, 6]: 99.4 % area
- % DP (total degradation products) [3, 7]: 0.4 % area
- % DS (drug substance) [3, 7]: 99.6 % area
- % DP (total degradation products) [3, 8]: 0.5 % area
- % DS (drug substance) [3, 8]: 99.5 % area
- % DP (total degradation products) [3, 9]: 0.5 % area
- % DS (drug substance) [3, 9]: 99.5 % area
- % DP (total degradation products) [3, 10]: 0.5 % area
- % DS (drug substance) [3, 10]: 99.5 % area
- % DP (total degradation products) [3, 11]: 0.6 % area
- % DS (drug substance) [3, 11]: 99.3 % area
- % DP (total degradation products) [3, 12]: 0.5 % area
- % DS (drug substance) [3, 12]: 99.5 % area
- % DP (total degradation products) [3, 13]: 0.6 % area
- % DS (drug substance) [3, 13]: 99.4 % area
- % DP (total degradation products) ([3]; Standard, freshly prepared): 0.4 % area
- % DS (drug substance) ([3]; Standard, freshly prepared): 99.6 % area
- pH of initial mixture ([4]; 2 mg/mL in 100 mM lactate buffer, pH 3.5): 3.57
- % DP (total degradation products) [4, 14]: 0.71 % area
- assay [4, 14]: [102.8]
- pH of initial mixture ([4]; 2 mg/mL in water): 6.30
- % DP (total degradation products) [4, 15]: 1.22 % area
- CL (appearance) [4, 15]: A↓
- assay [4, 15]: [98.85]
- % DP (total degradation products) [4, 16]: 1.31 % area
- CL (appearance) [4, 16]: A↓*
- assay ([4]; 2 mg/mL, 100 mM lactate buffer pH 3.5, 1 week at 50° C., external standard): [99.12]
- % DP (total degradation products) ([4]; 2% in 0.5% CMC, 1 day at RT): 0.49 % area
- CL (appearance) ([4]; 2% in 0.5% CMC, 1 day at RT): A↓↓
- assay ([4]; 2% in 0.5% CMC, 1 day at RT): [77.50]
- % DP (total degradation products) [4, 17]: 0.41 % area
- assay [4, 17]: [96.42]
- % DP (total degradation products) [4, 18]: 0.43 % area
- assay [4, 18]: [96.99]
- % DP (total degradation products) [4, 19]: 0.42 % area
- assay [4, 19]: [95.06]
- % DP (total degradation products) [4, 20]: 0.52 % area
- CL (appearance) [4, 20]: A↓
- assay [4, 20]: [99.24]
- Unstressed (% Area) ([4]; unstressed baseline of the stability study): 99.51% Area
- Intrinsic Dissolution Rate ([5]; 0.1N HCl (Table 19)): 0.02
- Intrinsic Dissolution Rate ([5]; Water (Table 19)): 0.06
- Intrinsic Dissolution Rate ([5]; pH = 4 (Table 19)): 0.08
- Bulk stability (XRPD) (Solid-state stability; 80° C.): no change
- Bulk stability (XRPD) (Solid-state stability; 80° C./75% r.h.): no change
- % DP (total degradation products) (Solid-state stability; [21]): 0.43 % area
- assay (Solid-state stability; [21]): [99.31]
- % DP (total degradation products) (Solid-state stability; [22]): 0.51 % area
- assay (Solid-state stability; [22]): [100.3]
- % DP (total degradation products) (Solid-state stability; [23]): 0.43 % area
- assay (Solid-state stability; [23]): [99.86]
- % DP (total degradation products) (Solid-state stability; [24]): 1.68 % area
- CL (appearance) (Solid-state stability; [24]): C (C = medium discoloration)
- assay (Solid-state stability; [24]): [98.65]

The remaining lines, values ahead:

- Solid State (EQ 93% r.h.) Crystallinity by XRPD [1]: Poor
Compound: 1:1 propionate salt of N-hydroxy-3-[4-[[[2-(2-methyl-1H-indol-3-yl)ethyl]amino]methyl]phenyl]-2E-2-propenamide

- Solid State (EQ 93% r.h.) Form by XRPD ([1]; 10 days): No change
Compound: Cc1[nH]c2ccccc2c1CCNCc1ccc(/C=C/C(=O)NO)cc1.O=C(O)c1cc(O)ccc1O [Gentisate, 1:1 gentisate salt of N-hydroxy-3-[4-[[[2-(2-methyl-1H-indol-3-yl)ethyl]amino]methyl]phenyl]-2E-2-propenamide]

- Solid State (EQ 93% r.h.) Form by XRPD ([1]; 10 days): No change
Compound: Cc1[nH]c2ccccc2c1CCNCc1ccc(/C=C/C(=O)NO)cc1.Cc1[nH]c2ccccc2c1CCNCc1ccc(/C=C/C(=O)NO)cc1.O=C(O)CC(=O)O [Malonate, 2:1 malonate (hemi-malonate) salt of N-hydroxy-3-[4-[[[2-(2-methyl-1H-indol-3-yl)ethyl]amino]methyl]phenyl]-2E-2-propenamide]

- Solid State (EQ 93% r.h.) Form by XRPD ([1]; 7 days): No change
Compound: Cc1[nH]c2ccccc2c1CCNCc1ccc(/C=C/C(=O)NO)cc1.O=C(O)c1ccccc1 [Benzoate, 1:1 benzoate salt of N-hydroxy-3-[4-[[[2-(2-methyl-1H-indol-3-yl)ethyl]amino]methyl]phenyl]-2E-2-propenamide]

- Solid State (EQ 93% r.h.) Form by XRPD ([1]; 10 days): No change
Compound: Cc1[nH]c2ccccc2c1CCNCc1ccc(/C=C/C(=O)NO)cc1.Cc1[nH]c2ccccc2c1CCNCc1ccc(/C=C/C(=O)NO)cc1.O=C(O)/C=C/C(=O)O [Fumarate, 2:1 fumarate salt (hemi-fumarate) of N-hydroxy-3-[4-[[[2-(2-methyl-1H-indol-3-yl)ethyl]amino]methyl]phenyl]-2E-2-propenamide]

- Intrinsic Dissolution Rate ([5]; 0.1N HCl (Table 19)): 0.13
- Intrinsic Dissolution Rate ([5]; Water (Table 19)): 0.14
- Intrinsic Dissolution Rate ([5]; pH = 4 (Table 19)): 0.09
Compound: CC(O)C(=O)O.Cc1[nH]c2ccccc2c1CCNCc1ccc(/C=C/C(=O)NO)cc1 [Anhydrous DL-lactate salt, 1:1 anhydrous DL-lactate salt of N-hydroxy-3-[4-[[[2-(2-methyl-1H-indol-3-yl)ethyl]amino]methyl]phenyl]-2E-2-propenamide]
